Reference: article PMC5379747, “Structural basis for a novel type of cytokinin-activating protein” (Scientific Reports, 2017)

Assays:
[1] = target: Cg1261 (CgLOGII), full-length, from Corynebacterium glutamicum ATCC 13032 (Corynebacterium glutamicum ATCC 13032); test: crystal structure; CgLOGII crystals, space group C222_(1), three molecules in the asymmetric unit; hexamer generated by crystallographic symmetry; 1.95 Å
[2] = target: Cg1261 (CgLOGII), full-length, from Corynebacterium glutamicum ATCC 13032 (Corynebacterium glutamicum ATCC 13032); test: SAXS; in solution, 4 °C, 0.5 ~4.5 mg/mL; molecular mass by the QR method
[3] = target: Cg1261 (CgLOGII), full-length, from Corynebacterium glutamicum ATCC 13032 (Corynebacterium glutamicum ATCC 13032); test: SEC; analytical, Superdex 200 10/300, 150 mM NaCl, 1 mL of 3 mg/ml; masses from a calibration curve of standards
[4] = target: Cg1261 DNR-truncated (Cg1261ΔDNR) (Corynebacterium glutamicum ATCC 13032); test: SAXS; in solution, 4 °C, 0.5 ~4.5 mg/mL; molecular mass by the QR method
[5] = target: Cg1261 DNR-truncated (Cg1261ΔDNR) (Corynebacterium glutamicum ATCC 13032); test: SEC; analytical, Superdex 200 10/300, 150 mM NaCl, 1 mL of 3 mg/ml; masses from a calibration curve of standards
[6] = target: CgLOG (Cg2612) from Corynebacterium glutamicum (Corynebacterium glutamicum); test: as above
[7] = target: T1, Cg1261 (CgLOGII, CgLOGIIF) (Corynebacterium glutamicum, UniProt Q8NRE2, D177A); test: TLC detection of adenine released from AMP; type: biochemical; conditions: 20 mM AMP, 36 mM Tris-HCl pH 8.0, 23 μM enzyme, 6 h
T1 construct: gene Cgl1110; full length, pET30a with C-terminal 6xHis, E. coli BL21(DE3), hexamer; residues 1-39 disordered in crystal

Cg1261ΔDNR (CgLOGIIΔDNR) = target: T2, Cg1261ΔDNR (CgLOGIIΔDNR) (Corynebacterium glutamicum, UniProt Q8NRE2); test: TLC detection of adenine released from AMP; type: biochemical; conditions: 20 mM AMP, 36 mM Tris-HCl pH 8.0, 23 μM enzyme, 30 °C
T2 construct: gene Cgl1110; E. coli expressed, hexamer

[8] = target: T3, Cg1261 (CgLOGII, CgLOGIIF) (Corynebacterium glutamicum, UniProt Q8NRE2, M185A); test: TLC detection of adenine released from AMP; type: biochemical; conditions: 20 mM AMP, 36 mM Tris-HCl pH 8.0, 23 μM enzyme, 6 h
T3 construct: gene Cgl1110; full length, pET30a with C-terminal 6xHis, E. coli BL21(DE3), hexamer; residues 1-39 disordered in crystal

Tt1465 (TtLOGII) = target: T4, Tt1465 (TtLOGII) (Thermus thermophilus, UniProt Q5SHT6); test: TLC detection of adenine released from AMP; type: biochemical; conditions: 20 mM AMP, 36 mM Tris-HCl pH 8.0, 23 μM enzyme, 65 °C
T4 construct: gene TTHA1644; recombinant, prepared similarly to CgLOGII; hexamer
T4 sequence (Q5SHT6 1-217): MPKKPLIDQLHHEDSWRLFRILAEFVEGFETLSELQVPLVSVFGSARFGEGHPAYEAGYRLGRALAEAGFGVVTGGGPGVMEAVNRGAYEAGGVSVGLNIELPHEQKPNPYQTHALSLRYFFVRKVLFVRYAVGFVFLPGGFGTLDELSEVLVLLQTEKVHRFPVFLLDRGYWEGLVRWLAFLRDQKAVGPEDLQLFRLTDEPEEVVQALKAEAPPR

[9] = target: T5, Cg1261 (CgLOGII, CgLOGIIF) (Corynebacterium glutamicum, UniProt Q8NRE2, F153A); test: TLC detection of adenine released from AMP; type: biochemical; conditions: 20 mM AMP, 36 mM Tris-HCl pH 8.0, 23 μM enzyme, 6 h
T5 construct: gene Cgl1110; full length, pET30a with C-terminal 6xHis, E. coli BL21(DE3), hexamer; residues 1-39 disordered in crystal

[10] = target: T6, Cg1261 (CgLOGII, CgLOGIIF) (Corynebacterium glutamicum, UniProt Q8NRE2, F152A); test: TLC detection of adenine released from AMP; type: biochemical; conditions: 20 mM AMP, 36 mM Tris-HCl pH 8.0, 23 μM enzyme, 6 h
T6 construct: gene Cgl1110; full length, pET30a with C-terminal 6xHis, E. coli BL21(DE3), hexamer; residues 1-39 disordered in crystal

[11] = target: T7, Cg1261 (CgLOGII, CgLOGIIF) (Corynebacterium glutamicum, UniProt Q8NRE2); test: TLC detection of adenine released from AMP; type: biochemical; conditions: 20 mM AMP, 36 mM Tris-HCl pH 8.0, 23 μM enzyme, 30 °C
T7 construct: gene Cgl1110; full length, pET30a with C-terminal 6xHis, E. coli BL21(DE3), hexamer; residues 1-39 disordered in crystal
T7 sequence (Q8NRE2 1-256): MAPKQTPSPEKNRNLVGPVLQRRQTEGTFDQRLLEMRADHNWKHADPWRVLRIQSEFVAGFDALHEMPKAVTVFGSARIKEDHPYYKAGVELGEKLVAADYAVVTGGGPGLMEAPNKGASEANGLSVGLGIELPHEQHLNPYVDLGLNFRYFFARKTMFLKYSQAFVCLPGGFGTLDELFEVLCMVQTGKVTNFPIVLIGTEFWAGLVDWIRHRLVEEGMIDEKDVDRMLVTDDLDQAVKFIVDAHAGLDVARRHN

T5 sequence (Q8NRE2 entry or part of it F153A): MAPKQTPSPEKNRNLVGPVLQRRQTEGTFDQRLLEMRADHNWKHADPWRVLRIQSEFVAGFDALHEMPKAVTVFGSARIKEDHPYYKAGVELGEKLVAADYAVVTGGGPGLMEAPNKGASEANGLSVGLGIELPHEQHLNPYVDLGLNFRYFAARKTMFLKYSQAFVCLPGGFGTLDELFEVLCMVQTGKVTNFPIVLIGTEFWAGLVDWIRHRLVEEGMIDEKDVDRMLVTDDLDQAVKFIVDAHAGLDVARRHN
T1 sequence (Q8NRE2 entry or part of it D177A): as the sequence (Q8NRE2 entry or part of it F153A) above, with A153F, D177A counted along it
T6 sequence (Q8NRE2 entry or part of it F152A): as the sequence (Q8NRE2 entry or part of it F153A) above, with F152A, A153F counted along it
T3 sequence (Q8NRE2 entry or part of it M185A): as the sequence (Q8NRE2 entry or part of it F153A) above, with A153F, M185A counted along it

Cg1261 (CgLOGII), full-length, from Corynebacterium glutamicum ATCC 13032 (enzyme)
stoichiometry N [1]: 6 | stoichiometry N [2]: 6 | stoichiometry N [3]: 6

Cg1261 DNR-truncated (Cg1261ΔDNR) (domain or fragment)
stoichiometry N [4]: 6 | stoichiometry N [5]: 6

CgLOG (Cg2612) from Corynebacterium glutamicum (enzyme)
stoichiometry N [6]: 2

Nc1ncnc2c1ncn2[C@@H]1O[C@H](COP(=O)(O)O)[C@@H](O)[C@H]1O [AMP]
TLC detection of adenine released from AMP [7]: Asp177Ala substitution resulted in an almost complete loss of the activity | TLC detection of adenine released from AMP (Cg1261ΔDNR (CgLOGIIΔDNR)): Cg1261ΔDNR showed the same level of phosphoribohydrolase activity as Cg1261 | TLC detection of adenine released from AMP [8]: such as Phe152, Phe153, and Met185, substituted with alanine still showed the activity | TLC detection of adenine released from AMP (Tt1465 (TtLOGII)): Tt1465 hydrolyzed AMP into an adenine base and ribose 5-phosphate | TLC detection of adenine released from AMP [9]: such as Phe152, Phe153, and Met185, substituted with alanine still showed the activity | TLC detection of adenine released from AMP [10]: such as Phe152, Phe153, and Met185, substituted with alanine still showed the activity | TLC detection of adenine released from AMP [11]: hydrolyzed AMP into an adenine base and ribose 5-phosphate
